# Experimental data: patent US10669272B2, “Substituted naphthyridinone compounds useful as T cell activators” (BRISTOL-MYERS SQUIBB COMPANY, priority 2018, dated 2020)
# Read-outs that look alike come from different tables or passages of the source.
# Tests used:
# [1] = molecular target: T1, human DGKα (Homo sapiens, UniProt P23743); assay: DGKα LIPGLO assay (extruded liposome substrate), in vitro DGK inhibition; format: biochemical; conditions: liposome (LIPGLO) assay; read-out: DGKa LIPGLO IC50
# T1 construct: TVMV protease cleavage site (C); Hexa-His (C); made in house; host or cells: Sf9 insect cells (baculovirus, Bac-to-Bac)
# [2] = system: Human venous whole blood; assay: Human whole blood IFN-γ assay; format: cell-based; conditions: human whole blood, normalized to 3 μM reference compound with anti-CD3 plus anti-CD28 as 100% activation, read-out: INFg Whole Blood Normalized Agonist EC50;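 note: blood from healthy donors exposed to compound for 1 h before stimulation with anti-CD3 and anti-CD28 at 1 µg/mL each, IFN-γ quantified in supernatant by AlphaLISA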
# Description: Human Whole Blood IFN-γ Assay
# Human venous whole blood (22.5 μL per well), obtained from healthy donors, was pre-treated with compounds for one hour at 37° C. in a humidified 95% air/5% CO2 incubator. The blood was stimulated with 2.5 μL anti-human CD3 and anti-CD28 mAb at a final concentration of 1 μg/mL each for 24 hours at 37° C. IFN-γ in the supernatants was measured using AlphLISA kit (Cat # AL217).
# [3] = molecular target: T2, human DGKζ (Homo sapiens, UniProt Q13574); assay: DGKζ LIPGLO assay (extruded liposome substrate), in vitro DGK inhibition; format: biochemical; conditions: liposome (LIPGLO) assay; read-out: DGKz LIPGLO IC50
# T2 construct: TVMV protease cleavage site (C); Hexa-His (C); made in house; host or cells: Sf9 insect cells (baculovirus, Bac-to-Bac)
# T2 sequence (Q13574 with tags, fused parts or gaps isoform Q13574-4): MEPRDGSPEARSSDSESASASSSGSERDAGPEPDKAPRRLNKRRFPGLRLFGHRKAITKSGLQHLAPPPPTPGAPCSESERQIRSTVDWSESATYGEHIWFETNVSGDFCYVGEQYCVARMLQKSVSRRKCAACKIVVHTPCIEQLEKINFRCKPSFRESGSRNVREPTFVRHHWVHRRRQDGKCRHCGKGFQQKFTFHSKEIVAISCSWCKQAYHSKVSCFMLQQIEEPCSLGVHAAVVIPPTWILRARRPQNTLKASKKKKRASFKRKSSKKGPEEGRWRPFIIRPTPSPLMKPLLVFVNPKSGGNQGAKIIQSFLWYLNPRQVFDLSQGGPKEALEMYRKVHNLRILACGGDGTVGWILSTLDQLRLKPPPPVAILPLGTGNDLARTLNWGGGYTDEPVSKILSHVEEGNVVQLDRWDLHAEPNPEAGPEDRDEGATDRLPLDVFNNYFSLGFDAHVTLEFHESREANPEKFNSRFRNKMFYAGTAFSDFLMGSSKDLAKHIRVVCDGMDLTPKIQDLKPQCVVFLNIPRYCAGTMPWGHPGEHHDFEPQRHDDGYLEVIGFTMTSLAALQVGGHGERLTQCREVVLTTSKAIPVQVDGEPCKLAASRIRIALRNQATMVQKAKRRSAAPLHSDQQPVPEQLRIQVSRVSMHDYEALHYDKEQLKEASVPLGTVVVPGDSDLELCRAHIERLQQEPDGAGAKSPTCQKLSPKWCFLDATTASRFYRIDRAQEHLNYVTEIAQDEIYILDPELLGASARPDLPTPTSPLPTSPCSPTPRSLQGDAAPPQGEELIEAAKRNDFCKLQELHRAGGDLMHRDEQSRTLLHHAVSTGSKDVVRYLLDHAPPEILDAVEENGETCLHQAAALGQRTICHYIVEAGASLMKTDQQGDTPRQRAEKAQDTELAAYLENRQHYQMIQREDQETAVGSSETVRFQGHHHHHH
# T1 sequence (P23743 with tags, fused parts or gaps): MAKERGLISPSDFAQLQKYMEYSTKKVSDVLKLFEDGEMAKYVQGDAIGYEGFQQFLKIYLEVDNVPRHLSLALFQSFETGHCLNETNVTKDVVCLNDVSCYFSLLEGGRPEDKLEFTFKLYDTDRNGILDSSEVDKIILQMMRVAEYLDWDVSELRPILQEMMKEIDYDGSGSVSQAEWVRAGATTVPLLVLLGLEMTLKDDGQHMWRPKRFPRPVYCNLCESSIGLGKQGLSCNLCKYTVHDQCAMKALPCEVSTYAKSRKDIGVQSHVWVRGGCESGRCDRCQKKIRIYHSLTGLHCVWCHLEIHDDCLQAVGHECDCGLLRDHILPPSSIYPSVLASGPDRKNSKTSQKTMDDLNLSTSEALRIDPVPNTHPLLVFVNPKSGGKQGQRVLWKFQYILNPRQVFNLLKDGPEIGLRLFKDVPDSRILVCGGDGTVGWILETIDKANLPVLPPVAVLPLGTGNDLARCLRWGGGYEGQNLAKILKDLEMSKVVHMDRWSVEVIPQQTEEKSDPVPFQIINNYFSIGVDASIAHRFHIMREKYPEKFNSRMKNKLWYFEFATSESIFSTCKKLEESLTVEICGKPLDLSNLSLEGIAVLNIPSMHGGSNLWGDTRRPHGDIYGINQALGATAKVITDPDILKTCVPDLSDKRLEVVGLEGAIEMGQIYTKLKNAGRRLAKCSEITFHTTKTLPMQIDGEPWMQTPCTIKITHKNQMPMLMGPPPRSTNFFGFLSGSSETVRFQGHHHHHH
SMILES,IC50 [1],"EC50 ([2]; Homo sapiens, 24 h)",IC50 [3],EC50 [2]
"COC(=O)NC[C@@H]1CN(c2cc(=O)n(C)c3ccc(C#N)nc23)[C@@H](C)CN1C(c1ccc(F)cc1)c1ccc(F)cc1 [Example 1166, methyl (((2R,5S)-1-(bis(4-fluorophenyl)methyl)-4-(6-cyano-1-methyl-2-oxo-1,2-dihydro-1,5-naphthyridin-4-yl)-5-methylpiperazin-2-yl)methyl)carbamate]",1.8 µM,0.35 µM,0.37 µM,
C[C@H]1CN(C(c2ccc(F)cc2)c2ccc(F)cc2)[C@H](CN2CC(O)C2)CN1c1cc(=O)n(C)c2ccc(C#N)nc12 [Example 1168],83 µM,20 µM,60 µM,
C[C@H]1CN(C(c2ccc(F)cc2)c2ccc(F)cc2)[C@H](CN(C)C)CN1c1cc(=O)n(C)c2ccc(C#N)nc12 [Example 1169],39 µM,2.3 µM,6.2 µM,
"C[C@@H]1CN(C(c2ccc(F)cc2)c2ccc(F)cc2)[C@@H](CO)CN1c1cc(=O)n(C)c2ccc(C#N)nc12 [Example 1172, 8-((2R,5R)-4-(bis(4-fluorophenyl)methyl)-5-(hydroxymethyl)-2-methylpiperazin-1-yl)-5-methyl-6-oxo-5,6-dihydro-1,5-naphthyridine-2-carbonitrile]",22 µM,0.42 µM,3.2 µM,
Cc1ccc(C(c2ccc(C)cc2)N2C[C@@H](C)N(c3cc(=O)n(C)c4ccc(C#N)nc34)C[C@@H]2CO)cc1 [Example 1173],10 µM,1.4 µM,0.98 µM,
C[C@@H]1CN(C(c2ccc(F)cc2)c2ccc(Cl)cc2)[C@@H](CO)CN1c1cc(=O)n(C)c2ccc(C#N)nc12 (stereo partly drawn) [Example 1175],21 µM,20 µM,1 µM,
C[C@@H]1CN(Cc2c(F)cc(F)cc2F)[C@@H](CO)CN1c1cc(=O)n(C)c2ccc(C#N)nc12 [Example 1182],34 µM,20 µM,1.2 µM,
"COC[C@H]1CN(c2cc(=O)n(C)c3ccc(C#N)nc23)[C@H](C)CN1C(c1ccc(F)cc1)c1ccc(F)cc1 [Example 1183, 8-((2R,5R)-4-(bis(4-fluorophenyl)methyl)-5-(methoxymethyl)-2-methylpiperazin-1-yl)-5-methyl-6-oxo-5,6-dihydro-1,5-naphthyridine-2-carbonitrile]",> 250 µM,9.2 µM,8.9 µM,
CC[C@@H]1CN(c2cc(=O)n(C)c3ccc(C#N)nc23)[C@@H](C)CN1C(c1ccc(OC(F)(F)F)cc1)C1CC1 (stereo partly drawn) [Example 1190],2.3 µM,1.2 µM,5.9 µM,
CC[C@@H]1CN(c2cc(=O)n(C)c3ccc(C#N)nc23)[C@@H](C)CN1Cc1ccc(C(F)(F)F)cc1C(F)(F)F [Example 1197],9.5 µM,3.5 µM,1.6 µM,
CC(c1cc(OC(F)(F)F)ccc1F)N1C[C@H](C)N(c2cc(=O)n(C)c3ccc(C#N)nc23)C[C@H]1C (stereo partly drawn) [Example 1203],3 µM,,1.6 µM,20 µM
CCC(c1cc(OC(F)(F)F)ccc1F)N1C[C@H](C)N(c2cc(=O)n(C)c3ccc(C#N)nc23)C[C@H]1C (stereo partly drawn) [Example 1207],14 µM,,1.4 µM,13 µM
CCC(c1ccc(C2CC2)cc1F)N1C[C@H](C)N(c2cc(=O)n(C)c3ccc(C#N)nc23)C[C@H]1C (stereo partly drawn) [Example 1218],0.067 µM,0.32 µM,0.069 µM,
CCC(c1ccc(C2CC2)cc1F)N1C[C@H](C)N(c2cc(=O)n(C)c3ccc(C#N)nc23)C[C@H]1C (stereo partly drawn) [Example 1219],0.067 µM,,0.069 µM,0.32 µM
CC(c1cccc(C(F)F)n1)N1C[C@H](C)N(c2cc(=O)n(C)c3ccc(C#N)nc23)C[C@H]1C (stereo partly drawn) [Example 1222],0.016 µM,0.52 µM,0.11 µM,
CC(c1cccc(C(F)F)n1)N1C[C@H](C)N(c2cc(=O)n(C)c3ccc(C#N)nc23)C[C@H]1C (stereo partly drawn) [Example 1223],0.016 µM,,0.11 µM,0.52 µM

SMILES,IC50 [1],"EC50 ([2]; Homo sapiens, 24 h)",IC50 [3],EC50 [2]
C[C@@H]1CN(c2cc(=O)n(C)c3ccc(C#N)nc23)[C@@H](C)CN1Cc1cc(F)c(F)c(F)c1 [Example 1235],1.1 µM,3.3 µM,0.63 µM,
COc1cc(F)c(C(C)N2C[C@H](C)N(c3cc(=O)n(C)c4ccc(C#N)nc34)C[C@H]2C)c(F)c1 (stereo partly drawn) [Example 1242],0.2 µM,0.18 µM,0.019 µM,
COc1cc(F)c(C(C)N2C[C@H](C)N(c3cc(=O)n(C)c4ccc(C#N)nc34)C[C@H]2C)cc1F (stereo partly drawn) [Example 1244],0.66 µM,0.12 µM,0.03 µM,
COc1ccc(C(C)N2C[C@H](C)N(c3cc(=O)n(C)c4ccc(C#N)nc34)C[C@H]2C)cc1C(F)(F)F (stereo partly drawn) [Example 1249],51 µM,17 µM,0.64 µM,
COc1ccc(C(C)N2C[C@H](C)N(c3cc(=O)n(C)c4ccc(C#N)nc34)C[C@H]2C)cc1C(F)(F)F (stereo partly drawn) [Example 1250],20 µM,,1.7 µM,18 µM
CC(c1ccc(C2(C#N)CC2)cc1)N1C[C@H](C)N(c2cc(=O)n(C)c3ccc(C#N)nc23)C[C@H]1C (stereo partly drawn) [Example 1253],1.9 µM,1.8 µM,0.34 µM,
CC(c1ccc(C2(C#N)CC2)cc1)N1C[C@H](C)N(c2cc(=O)n(C)c3ccc(C#N)nc23)C[C@H]1C (stereo partly drawn) [Example 1254],1.9 µM,,0.34 µM,1.8 µM
Cc1cc(C(C)N2C[C@H](C)N(c3cc(=O)n(C)c4ccc(C#N)nc34)C[C@H]2C)ccc1F (stereo partly drawn) [Example 1255],3.1 µM,2.9 µM,2 µM,
COCc1ccc(C(C)N2C[C@H](C)N(c3cc(=O)n(C)c4ccc(C#N)nc34)C[C@H]2C)cc1 (stereo partly drawn) [Example 1265],0.049 µM,,0.048 µM,0.12 µM
CCOc1cc(F)c(CN2C[C@H](C)N(c3cc(=O)n(C)c4ccc(C#N)nc34)C[C@H]2C)c(F)c1 [Example 1275],0.14 µM,0.19 µM,0.26 µM,
COc1cc(F)c(CN2C[C@H](C)N(c3cc(=O)n(C)c4ccc(C#N)nc34)C[C@H]2C)c(F)c1 [Example 1276],0.071 µM,0.49 µM,0.24 µM,
C[C@@H]1CN(c2cc(=O)n(C)c3ccc(C#N)nc23)[C@@H](C)CN1Cc1ccc(P(C)(C)=O)cc1 [Example 1289],51 µM,20 µM,130 µM,
CC(c1ccc(P(C)(C)=O)cc1)N1C[C@H](C)N(c2cc(=O)n(C)c3ccc(C#N)nc23)C[C@H]1C (stereo partly drawn) [Example 1290],170 µM,20 µM,43 µM,
CC(c1ccc(P(C)(C)=O)cc1)N1C[C@H](C)N(c2cc(=O)n(C)c3ccc(C#N)nc23)C[C@H]1C (stereo partly drawn) [Example 1291],97 µM,,96 µM,20 µM
COc1ccc(C(C)N2C[C@H](C)N(c3cc(=O)n(C)c4ccc(C#N)nc34)C[C@H]2C)cc1OCCN1CCOCC1 (stereo partly drawn) [Example 1305],130 µM,20 µM,7.5 µM,
"CC[C@@H]1CN(c2cc(=O)n(C)c3ccc(C#N)nc23)[C@@H](C)CN1Cc1ccc(OC(F)F)cc1 [Example 1330, 8-((2S,5R)-4-(4-(difluoromethoxy)benzyl)-5-ethyl-2-methylpiperazin-1-yl)-5-methyl-6-oxo-5,6-dihydro-1,5-naphthyridine-2-carbonitrile]",0.044 µM,1.5 µM,0.38 µM,
